Holding throughout (experiment): Competitive isoTOP-ABPP, cell lysates
Holding throughout (format): binding

One assay deals with LRBA C1704 (P50851) (Homo sapiens, UniProt P50851).
The next assay concerns the target MLTK C22 (Q9NYL2) (Homo sapiens, UniProt Q9NYL2). The settings on record: for isoTOP-ABPP reactivity profile ratio, Q9NYL2_C22: 500 μm, in-vitro_ramos_231.
For the next assay, the target named is T1, NR3C1 C302 (P04150) (Homo sapiens, UniProt P04150).
T1 sequence (P04150 1-777): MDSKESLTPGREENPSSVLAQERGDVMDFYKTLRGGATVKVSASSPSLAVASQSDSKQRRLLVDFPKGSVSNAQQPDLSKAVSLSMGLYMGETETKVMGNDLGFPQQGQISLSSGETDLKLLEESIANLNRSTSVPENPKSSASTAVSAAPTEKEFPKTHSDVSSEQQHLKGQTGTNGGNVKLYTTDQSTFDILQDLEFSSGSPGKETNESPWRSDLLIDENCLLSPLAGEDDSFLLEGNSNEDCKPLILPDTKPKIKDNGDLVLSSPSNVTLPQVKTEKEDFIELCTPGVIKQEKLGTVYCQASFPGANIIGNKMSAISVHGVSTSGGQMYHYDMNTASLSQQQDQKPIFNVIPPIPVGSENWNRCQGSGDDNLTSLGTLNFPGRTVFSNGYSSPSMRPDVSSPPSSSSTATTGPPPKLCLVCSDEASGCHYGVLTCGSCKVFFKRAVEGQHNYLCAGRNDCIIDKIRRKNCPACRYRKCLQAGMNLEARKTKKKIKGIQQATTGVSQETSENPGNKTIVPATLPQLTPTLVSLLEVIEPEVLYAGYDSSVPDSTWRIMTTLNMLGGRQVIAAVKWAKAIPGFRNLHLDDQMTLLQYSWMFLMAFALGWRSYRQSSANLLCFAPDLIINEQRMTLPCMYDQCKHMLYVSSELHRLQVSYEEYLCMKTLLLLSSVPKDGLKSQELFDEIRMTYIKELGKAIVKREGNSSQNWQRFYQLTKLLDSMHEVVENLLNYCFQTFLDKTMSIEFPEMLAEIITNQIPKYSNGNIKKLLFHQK
The settings on record: for isoTOP-ABPP reactivity ratio, P04150_C302: 500 μm, in-vitro_ramos; for isoTOP-ABPP ratio, P04150_C302: 500 μM, invitro.

For another assay, the target named is T2, IREB2 C137 (P48200) (Homo sapiens, UniProt P48200).
T2 sequence (P48200 1-963): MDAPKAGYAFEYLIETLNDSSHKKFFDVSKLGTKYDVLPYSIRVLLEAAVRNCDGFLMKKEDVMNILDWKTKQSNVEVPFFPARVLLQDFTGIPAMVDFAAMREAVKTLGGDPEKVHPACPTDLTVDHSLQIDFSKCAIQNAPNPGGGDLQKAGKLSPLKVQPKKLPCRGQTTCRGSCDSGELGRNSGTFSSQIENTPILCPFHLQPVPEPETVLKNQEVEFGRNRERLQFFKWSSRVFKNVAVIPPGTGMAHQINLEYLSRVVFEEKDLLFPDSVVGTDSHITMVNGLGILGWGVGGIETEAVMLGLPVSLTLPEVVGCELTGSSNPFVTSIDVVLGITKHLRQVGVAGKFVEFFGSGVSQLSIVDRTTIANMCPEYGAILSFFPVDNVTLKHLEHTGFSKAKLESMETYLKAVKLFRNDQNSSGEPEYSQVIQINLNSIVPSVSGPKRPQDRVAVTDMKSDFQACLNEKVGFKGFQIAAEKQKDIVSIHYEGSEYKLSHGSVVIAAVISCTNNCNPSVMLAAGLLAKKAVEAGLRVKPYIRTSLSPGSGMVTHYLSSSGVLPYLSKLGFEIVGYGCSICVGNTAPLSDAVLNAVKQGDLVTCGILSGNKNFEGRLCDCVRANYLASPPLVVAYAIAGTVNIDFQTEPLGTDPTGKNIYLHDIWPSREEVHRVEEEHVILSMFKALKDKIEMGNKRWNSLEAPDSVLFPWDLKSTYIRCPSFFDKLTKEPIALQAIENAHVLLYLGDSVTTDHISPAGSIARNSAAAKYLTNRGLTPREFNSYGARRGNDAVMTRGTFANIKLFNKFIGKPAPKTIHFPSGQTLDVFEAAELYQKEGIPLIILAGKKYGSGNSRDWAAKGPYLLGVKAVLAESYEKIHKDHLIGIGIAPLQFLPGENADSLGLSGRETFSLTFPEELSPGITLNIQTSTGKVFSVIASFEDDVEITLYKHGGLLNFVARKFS
The settings on record: for isoTOP-ABPP reactivity ratio, P48200_C137: 500 μm, in-vitro_ramos.

Values joined by “and” are separate entries in the source; they are usually repeats but may differ in a detail not shown here. Identical values can stand only once.

Chain of LRBA C1704 (P50851) (P50851 whole entry): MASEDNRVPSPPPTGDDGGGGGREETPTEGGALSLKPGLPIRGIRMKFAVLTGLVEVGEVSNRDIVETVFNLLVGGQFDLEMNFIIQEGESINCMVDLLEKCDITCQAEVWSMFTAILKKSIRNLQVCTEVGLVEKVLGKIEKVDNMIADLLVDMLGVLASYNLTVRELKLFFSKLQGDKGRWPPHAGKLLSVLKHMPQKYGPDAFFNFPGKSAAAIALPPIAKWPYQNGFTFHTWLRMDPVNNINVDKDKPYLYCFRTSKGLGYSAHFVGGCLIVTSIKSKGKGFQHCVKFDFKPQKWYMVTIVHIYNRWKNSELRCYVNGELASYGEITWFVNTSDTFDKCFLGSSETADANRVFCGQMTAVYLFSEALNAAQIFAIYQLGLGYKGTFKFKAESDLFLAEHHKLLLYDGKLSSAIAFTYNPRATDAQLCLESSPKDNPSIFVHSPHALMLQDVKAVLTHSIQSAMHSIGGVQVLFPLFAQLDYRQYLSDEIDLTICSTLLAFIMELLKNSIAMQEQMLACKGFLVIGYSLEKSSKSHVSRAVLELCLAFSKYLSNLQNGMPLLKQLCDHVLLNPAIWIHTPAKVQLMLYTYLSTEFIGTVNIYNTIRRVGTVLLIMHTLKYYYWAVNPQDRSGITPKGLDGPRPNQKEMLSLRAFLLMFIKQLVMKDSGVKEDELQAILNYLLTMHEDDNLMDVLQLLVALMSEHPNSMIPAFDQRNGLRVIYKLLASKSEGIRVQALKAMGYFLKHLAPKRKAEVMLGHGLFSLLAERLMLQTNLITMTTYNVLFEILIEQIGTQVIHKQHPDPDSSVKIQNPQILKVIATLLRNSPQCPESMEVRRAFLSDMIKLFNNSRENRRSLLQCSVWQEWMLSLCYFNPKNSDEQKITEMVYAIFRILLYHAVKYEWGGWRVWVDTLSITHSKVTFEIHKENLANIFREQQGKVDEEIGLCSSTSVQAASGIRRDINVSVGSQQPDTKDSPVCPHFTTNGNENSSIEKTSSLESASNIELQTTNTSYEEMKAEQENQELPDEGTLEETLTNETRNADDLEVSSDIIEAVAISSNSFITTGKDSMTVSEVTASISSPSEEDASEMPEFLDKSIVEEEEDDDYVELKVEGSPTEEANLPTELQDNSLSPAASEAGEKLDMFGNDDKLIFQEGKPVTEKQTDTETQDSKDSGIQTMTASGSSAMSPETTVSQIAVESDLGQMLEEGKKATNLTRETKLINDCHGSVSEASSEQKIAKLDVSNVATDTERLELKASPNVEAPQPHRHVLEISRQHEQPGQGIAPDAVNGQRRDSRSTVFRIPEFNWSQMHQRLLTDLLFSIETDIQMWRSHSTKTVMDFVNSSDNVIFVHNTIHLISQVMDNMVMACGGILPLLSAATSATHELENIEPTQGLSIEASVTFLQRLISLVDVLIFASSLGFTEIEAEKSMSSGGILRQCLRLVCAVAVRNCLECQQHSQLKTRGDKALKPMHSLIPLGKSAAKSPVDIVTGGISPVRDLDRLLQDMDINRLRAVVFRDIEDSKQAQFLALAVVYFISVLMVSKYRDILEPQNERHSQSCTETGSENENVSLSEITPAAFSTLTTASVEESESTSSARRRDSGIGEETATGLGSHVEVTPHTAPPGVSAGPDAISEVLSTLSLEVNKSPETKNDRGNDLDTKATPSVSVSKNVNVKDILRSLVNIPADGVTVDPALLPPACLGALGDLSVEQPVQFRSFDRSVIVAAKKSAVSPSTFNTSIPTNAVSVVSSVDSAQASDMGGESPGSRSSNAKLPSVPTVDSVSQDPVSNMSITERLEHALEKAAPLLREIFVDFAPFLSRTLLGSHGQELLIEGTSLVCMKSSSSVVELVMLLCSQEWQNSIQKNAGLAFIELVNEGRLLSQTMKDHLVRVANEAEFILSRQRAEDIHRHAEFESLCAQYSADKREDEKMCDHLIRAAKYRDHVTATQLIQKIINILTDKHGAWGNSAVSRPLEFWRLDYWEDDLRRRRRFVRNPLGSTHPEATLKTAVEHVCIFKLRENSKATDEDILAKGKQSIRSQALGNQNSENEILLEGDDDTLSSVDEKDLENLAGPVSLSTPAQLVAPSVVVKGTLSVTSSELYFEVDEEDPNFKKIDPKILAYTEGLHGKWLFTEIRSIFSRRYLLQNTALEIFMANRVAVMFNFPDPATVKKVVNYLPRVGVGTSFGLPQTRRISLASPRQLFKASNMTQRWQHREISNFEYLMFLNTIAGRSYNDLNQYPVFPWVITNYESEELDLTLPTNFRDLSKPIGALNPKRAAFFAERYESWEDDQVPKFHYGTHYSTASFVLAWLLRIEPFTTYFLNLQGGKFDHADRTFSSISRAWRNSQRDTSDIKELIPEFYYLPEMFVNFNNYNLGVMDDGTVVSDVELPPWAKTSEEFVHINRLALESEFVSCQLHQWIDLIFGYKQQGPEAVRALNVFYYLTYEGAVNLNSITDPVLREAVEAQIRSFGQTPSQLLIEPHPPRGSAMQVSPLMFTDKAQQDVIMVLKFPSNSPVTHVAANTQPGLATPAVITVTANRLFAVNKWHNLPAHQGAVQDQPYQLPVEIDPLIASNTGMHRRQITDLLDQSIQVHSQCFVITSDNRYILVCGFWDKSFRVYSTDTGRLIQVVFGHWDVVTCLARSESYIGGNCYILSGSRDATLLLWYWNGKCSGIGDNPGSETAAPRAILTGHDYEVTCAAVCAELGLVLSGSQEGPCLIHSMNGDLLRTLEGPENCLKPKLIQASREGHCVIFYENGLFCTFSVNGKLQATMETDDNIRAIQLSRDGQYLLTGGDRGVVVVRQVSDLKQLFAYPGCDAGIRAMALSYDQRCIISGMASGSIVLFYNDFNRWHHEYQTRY
Chain of MLTK C22 (Q9NYL2) (Q9NYL2 whole entry): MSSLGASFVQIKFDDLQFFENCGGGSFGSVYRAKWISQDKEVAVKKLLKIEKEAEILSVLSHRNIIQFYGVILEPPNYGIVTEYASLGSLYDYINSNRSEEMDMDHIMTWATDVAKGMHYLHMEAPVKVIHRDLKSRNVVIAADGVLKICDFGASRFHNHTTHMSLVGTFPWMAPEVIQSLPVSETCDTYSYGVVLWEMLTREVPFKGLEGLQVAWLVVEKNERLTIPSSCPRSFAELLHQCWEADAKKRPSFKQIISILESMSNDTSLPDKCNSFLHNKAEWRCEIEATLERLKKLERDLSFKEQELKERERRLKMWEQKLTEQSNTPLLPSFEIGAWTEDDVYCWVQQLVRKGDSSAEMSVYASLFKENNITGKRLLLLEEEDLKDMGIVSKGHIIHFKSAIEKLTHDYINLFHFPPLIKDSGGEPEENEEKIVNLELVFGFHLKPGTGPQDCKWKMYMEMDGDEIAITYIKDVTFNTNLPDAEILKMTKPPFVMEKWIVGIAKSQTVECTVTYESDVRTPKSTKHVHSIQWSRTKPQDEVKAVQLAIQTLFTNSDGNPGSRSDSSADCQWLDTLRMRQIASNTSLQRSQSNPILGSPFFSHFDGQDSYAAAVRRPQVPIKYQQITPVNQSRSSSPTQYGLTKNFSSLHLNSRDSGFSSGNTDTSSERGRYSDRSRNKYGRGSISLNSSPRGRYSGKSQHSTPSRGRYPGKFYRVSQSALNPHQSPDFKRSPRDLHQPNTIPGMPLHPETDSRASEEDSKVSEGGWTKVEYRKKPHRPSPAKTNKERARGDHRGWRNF

Consider `COc1ccc(C2CC(c3cccs3)=NN2C(=O)CCl)cc1` (stereo not shown) [compound 4], for which the “R value (DMSO/fragment)” value at LRBA C1704 (P50851) (250 μM, in vitro, Ramos) worked out at 1.5; at MLTK C22 (Q9NYL2) (250 μM, in vitro, MDA-MB-231), 20.0.

`O=C(CCl)Nc1cccc2ncccc12` [compound 51]: at LRBA C1704 (P50851) (500 μm, in-vitro_ramos), the “isoTOP-ABPP reactivity profile ratio, P50851_C1704” value is given as 1.1.

For the molecule `CC1CCc2ccccc2N1C(=O)CCl` (stereo not shown) [compound 45], the “isoTOP-ABPP reactivity profile ratio, Q9NYL2_C22” value on MLTK C22 (Q9NYL2) is reported as 20.0.

Regarding `O=C(CCl)NC1C(O)OC(CO)C(O)C1O` (mixture of isomers) [compound 44], the “isoTOP-ABPP reactivity profile ratio, Q9NYL2_C22” value on MLTK C22 (Q9NYL2) is 0.8.

Turning to `O=C(CCl)Nc1ccccc1C1CCCCCC1` [compound 35], at LRBA C1704 (P50851) (500 μm, in-vitro_ramos), the “isoTOP-ABPP reactivity ratio, P50851_C1704” value came out at 1.1. On NR3C1 C302 (P04150), the “isoTOP-ABPP reactivity ratio, P04150_C302” value is 0.9. The “isoTOP-ABPP reactivity ratio, P48200_C137” value on IREB2 C137 (P48200) is listed as 1.1.

Take `O=C(CCl)NC(=O)NC12CC3CC(CC(C3)C1)C2` [compound 12]: the “isoTOP-ABPP ratio, P04150_C302” value at NR3C1 C302 (P04150) (ramos) came to 1.3.

For the molecule `O=C(CCl)N1CCN(S(=O)(=O)c2ccccc2F)CC1` [compound 10], on LRBA C1704 (P50851) (500 μM, invitro, ramos), the “isoTOP-ABPP ratio, P50851_C1704” value worked out at 0.8. The “isoTOP-ABPP ratio, P04150_C302” value at NR3C1 C302 (P04150) (231) was found to be 4.1. The “isoTOP-ABPP ratio, P48200_C137” value on IREB2 C137 (P48200) (500 μM, invitro, ramos) is 2.1.

In the case of `O=C(CCl)N1CCN(CC(=O)N2CCOCC2)CC1` [compound 29], the “isoTOP-ABPP ratio (reactivity profile), Q9NYL2_C22” value (“isoTOP-ABPP ratio … Q9NYL2_C22” below) on MLTK C22 (Q9NYL2) (500 μm in-vitro ramos_231) came out at 1.2.

Regarding `O=C(CCl)N1CCOCC1` [compound 22], the “isoTOP-ABPP ratio (reactivity profile), P04150_C302” value on NR3C1 C302 (P04150) (500 μm in-vitro ramos) came out at 0.9. Also, the “isoTOP-ABPP ratio … Q9NYL2_C22” value at MLTK C22 (Q9NYL2) (500 μm in-vitro ramos_231) worked out at 1.0.

Consider `CC(C)CCOCCNC(=O)CCl` [compound 27], for which the “isoTOP-ABPP ratio (reactivity profile), P50851_C1704” value at LRBA C1704 (P50851) (500 μm in-vitro ramos_231) is recorded as 1.1. The “isoTOP-ABPP ratio (reactivity profile), P04150_C302” value at NR3C1 C302 (P04150) (500 μm in-vitro ramos_231) is 1.3 and 1.0. For the same molecule, on IREB2 C137 (P48200) (500 μm in-vitro ramos_231), the “isoTOP-ABPP ratio (reactivity profile), P48200_C137” value was found to be 1.4. The “isoTOP-ABPP ratio … Q9NYL2_C22” value at MLTK C22 (Q9NYL2) (500 μm in-vitro ramos_231) amounted to 1.1.

Take `O=C(CCl)N1CCC(C(O)(c2ccccc2)c2ccccc2)CC1` [compound 20]: the “isoTOP-ABPP ratio (reactivity profile), P50851_C1704” value is recorded as 1.7 at LRBA C1704 (P50851) (500 μm in-vitro ramos) and 2.0 on LRBA C1704 (P50851) (500 μm in-vitro ramos_231). The “isoTOP-ABPP ratio (reactivity profile), P48200_C137” value on IREB2 C137 (P48200) (500 μm in-vitro ramos) was found to be 5.2. In addition, the “isoTOP-ABPP ratio … Q9NYL2_C22” value at MLTK C22 (Q9NYL2) (500 μm in-vitro ramos_231) amounted to 20.0.

In the case of `CCN(CC)c1ccc(S(N)(=O)=O)cc1NC(=O)CCl` [compound 30], the “isoTOP-ABPP ratio … Q9NYL2_C22” value on MLTK C22 (Q9NYL2) (500 μm in-vitro ramos) came out at 1.1.

Consider `C=CC(=O)N1CCC(c2noc3ccc(F)cc23)CC1` [compound 37], for which, on LRBA C1704 (P50851) (500 μm, in-vitro_ramos), the “isoTOP-ABPP reactivity ratio, P50851_C1704” value came to 1.0. Also, the “isoTOP-ABPP reactivity ratio, P04150_C302” value on NR3C1 C302 (P04150) amounted to 0.9. Moreover, the “isoTOP-ABPP reactivity ratio, P48200_C137” value at IREB2 C137 (P48200) was 0.9.

For the molecule `N#C/C(=C\c1cc(C(F)(F)F)cc(C(F)(F)F)c1)C(N)=O` [compound 23], on LRBA C1704 (P50851) (500 μm in-vitro ramos), the “isoTOP-ABPP ratio (reactivity profile), P50851_C1704” value is recorded as 3.4. In addition, the “isoTOP-ABPP ratio (reactivity profile), P04150_C302” value at NR3C1 C302 (P04150) (500 μm in-vitro ramos) is on record as 4.7. Besides, the “isoTOP-ABPP ratio (reactivity profile), P48200_C137” value at IREB2 C137 (P48200) (500 μm in-vitro ramos) was determined as 1.6. Also, the “isoTOP-ABPP ratio … Q9NYL2_C22” value at MLTK C22 (Q9NYL2) (500 μm in-vitro ramos_231) is 1.4.

With `C=CC(=O)Nc1cc(C)c(Br)cc1C` [compound 40], the “isoTOP-ABPP reactivity ratio, P48200_C137” value on IREB2 C137 (P48200) is given as 1.1.

For the molecule `O=C(CCl)NC12CC3CC(CC(C3)C1)C2` [compound 21], the “isoTOP-ABPP ratio (reactivity profile), P50851_C1704” value at LRBA C1704 (P50851) (500 μm in-vitro ramos) is recorded as 1.6. In addition, at MLTK C22 (Q9NYL2) (500 μm in-vitro ramos_231), the “isoTOP-ABPP ratio … Q9NYL2_C22” value worked out at 2.0.

These data come from patent US10670605B2, “Cysteine reactive probes and uses thereof” (The Scripps Research Institute, priority 2015, dated 2020).
